Counter-ions that a name gives are not always drawn. Like-named read-outs stand apart in the source and are kept apart here.
Assays:
H3122 cells = experiment: Cytotoxicity in non-small cell lung cancer cell line H3122 (SRB); format: cell-based, human
Procedure: Particularly, 4,000 H3122 cells containing ALK enzyme were distributed in each well of a 96 well plate together with 100 μl of DMEM (Dulbecco's Modified Eagle's Medium). One day later, the compound of the present invention was added to each well at different concentrations of […]. DMSO (dimethylsulfoxide) was added to the well that was not loaded with the compound by the same amount as the compound. Three days after the addition of the compound, DMEM was eliminated. 10% TCA (trichloroacetic acid) was added to fix the cells. The wells were washed with running water three times and the live cells were stained with SRB solution (1 sulphorodamine B). Then, OD was measured to calculate the population of the live cells.

Ba/F3 EML4-ALK WT cells = experiment: cells; format: cell-based, rodent; conditions: Ba/F3 EML4-ALK, read-out: Ba/F3 EML-ALK WT (IC50 μM)
H2228 cells = experiment: cells; conditions: Homo sapiens, NCI-H2228, 72 h
[1] = Homo sapiens, NCI-H3122, 72 h, H3122 cells, three days, SRB
[2] = read-out: Cytotoxicity H2228 (GI50 μM), H2228 cells, three days, SRB

Structure (SMILES) | GI50 (H3122 cells; [1]) | GI50 (H2228 cells; [2]) | further results
COc1cc(-c2ccccc2)c(CCN)cc1Nc1ncc(Cl)c(Nc2ccccc2S(=O)(=O)C(C)C)n1 [Example 67] | 0.23 µM |  | IC50 (Ba/F3 EML4-ALK WT cells): 0.11 µM
C=C(C)c1cc(OC)c(Nc2ncc(Cl)c(Nc3ccccc3S(=O)(=O)C(C)C)n2)cc1CCN [Example 75, N2-(5-(2-aminoethyl)-2-methoxy-4-(prop-1-ene-2-yl)phenyl)-5-chloro-N4-(2-(isopropylsulfonyl)phenyl)pyrimidine-2,4-diamine] | 0.23 µM |  | IC50 (Ba/F3 EML4-ALK WT cells): 0.11 µM
COc1cc(C(C)(C)C#N)c(C)cc1Nc1ncc(Cl)c(Nc2ccccc2S(=O)(=O)C(C)C)n1 [Example 54, 2-(4-((5-chloro-4-((2-(isopropylsulfonyl)phenyl)amino)pyrimidine-2-yl)amino)-5-methoxy-2-methylphenyl)-2-methylpropanenitrile] | 0.25 µM |  | IC50 (Ba/F3 EML4-ALK WT cells): 0.25 µM
COc1ccc(CCN)cc1Nc1ncc(Cl)c(Nc2c(F)cccc2S(=O)(=O)C(C)C)n1 [Example 34, N2-(5-(2-aminoethyl)-2-methoxyphenyl)-5-chloro-N4-(2-fluoro-6-(isopropylsulfonyl)phenyl)pyrimidine-2,4-diaminehydrochloride] | 2.2 µM | 2.3 µM | 
CCNC(=O)NCCc1ccc(OC)c(Nc2ncc(Cl)c(Nc3ccccc3S(=O)(=O)C(C)C)n2)c1 [Example 16, 1-(3-(5-chloro-4-(2-(isopropylsulfonyl)phenylamino)pyrimidine-2-ylamino)-4-methoxyphenethyl)-3-ethylurea] | 0.41 µM | 0.52 µM | 
COc1ccc(C(C)(C)CN)cc1Nc1ncc(Cl)c(Nc2c(F)cccc2S(=O)(=O)C(C)C)n1 [Example 38, N2-(5-(1-amino-2-methylpropane-2-yl)-2-methoxyphenyl)-5-chloro-N4-(2-fluoro-6-(isopropylsulfonyl)phenyl)pyrimidine-2,4-diamine] |  | 10 µM | GI50 (H3122 cells; H3122 cells, three days, SRB): 10 µM
COc1ccc(CCNC(C)C)cc1Nc1ncc(Cl)c(Nc2ccccc2S(=O)(=O)C(C)C)n1 [Example 15, 5-chloro-N2-(5-(2-(isopropylamino)ethyl)-2-methoxyphenyl)-N4-(2-(isopropylsulfonyl)phenyl)pyrimidine-2,4-diamine] | 1.1 µM | 0.78 µM | 
COc1cc(CNC=O)c(C)cc1Nc1ncc(Cl)c(Nc2ccccc2S(=O)(=O)C(C)C)n1 [Example 71, N-(4-((5-chloro-4-((2-(isopropylsulfonyl)phenyl)amino)pyrimidine-2-yl)amino)-5-methoxy-2-methylbenzyl)formamide] |  |  | IC50 (Ba/F3 EML4-ALK WT cells): 0.015 µM
COc1ccc(C2(CN)CCCCC2)cc1Nc1ncc(Cl)c(Nc2ccccc2S(=O)(=O)C(C)C)n1 [Example 2, N2-(5-(1-(aminomethyl)cyclohexyl)-2-methoxyphenyl)-5-chloro-N4-(2-(isopropylsulfonyl)phenyl)pyrimidine-2,4-diamine] | 2.63 µM | 3.77 µM | 
COc1ccc(C2(CN3CCOCC3)CCCC2)cc1Nc1ncc(Cl)c(Nc2ccccc2S(=O)(=O)C(C)C)n1 [Example 6, 5-chloro-N4-(2-(isopropylsulfonyl)phenyl)-N2-(2-methoxy-5-(1-(morpholinomethyl)cyclopentyl)phenyl)pyrimidine-2,4-diamine] |  | 10 µM | GI50 (H3122 cells; H3122 cells, three days, SRB): 10 µM
COc1ccc(CCNc2ncccn2)cc1Nc1ncc(Cl)c(Nc2ccccc2S(=O)(=O)C(C)C)n1 [Example 25, 5-chloro-N4-(2-(isopropylsulfonyl)phenyl)-N2-(2-methoxy-5-(2-(pyrimidine-2-ylamino)ethyl)phenyl)pyrimidine-2,4-diamine] | 1.3 µM | 1.5 µM | 
CCNCCc1ccc(OC)c(Nc2ncc(Cl)c(Nc3ccccc3S(=O)(=O)C(C)C)n2)c1 [Example 13, 5-chloro-N2-(5-(2-(ethylamino)ethyl)-2-methoxyphenyl)-N4-(2-(isopropylsulfonyl)phenyl)pyrimidine-2,4-diamine] | 0.99 µM | 0.87 µM | 
COc1ccc(CCNC(=S)NCc2ccccc2)cc1Nc1ncc(Cl)c(Nc2ccccc2S(=O)(=O)C(C)C)n1 [Example 20, 1-benzyl-3-(3-(5-chloro-4-(2-(isopropylsulfonyl)phenylamino)pyrimidine-2-ylamino)-4-methoxyphenethyl)thiourea] | 0.31 µM | 0.42 µM | 
COC(=O)CNCCc1ccc(OC)c(Nc2ncc(Cl)c(Nc3ccccc3S(=O)(=O)C(C)C)n2)c1 [Example 26, methyl 2-(3-(5-chloro-4-(2-(isopropylsulfonyl)phenylamino)pyrimidine-2-ylamino)-4-methoxyphenethylamino)acetate] | 0.14 µM | 0.42 µM | 
CCNC(=S)NCCc1ccc(OC)c(Nc2ncc(Cl)c(Nc3ccccc3S(=O)(=O)C(C)C)n2)c1 [Example 23, 1-(3-(5-chloro-4-(2-(isopropylsulfonyl)phenylamino)pyrimidine-2-ylamino)-4-methoxyphenethyl)-3-ethylthiourea] | 1.4 µM | 2.5 µM | 
COc1ccc(C(C)(C)CN)cc1Nc1ncc(Cl)c(Nc2ccc(F)cc2S(=O)(=O)C(C)C)n1 [Example 36, N2-(5-(1-amino-2-methylpropane-2-yl)-2-methoxyphenyl)-5-chloro-N4-(4-fluoro-2-(isopropylsulfonyl)phenyl)pyrimidine-2,4-diamine] |  | 10 µM | GI50 (H3122 cells; H3122 cells, three days, SRB): 10 µM
COc1ccc(CN)cc1Nc1ncc(Cl)c(Nc2ccccc2S(=O)(=O)C(C)C)n1 [Example 29, N2-(5-(aminomethyl)-2-methoxyphenyl)-5-chloro-N4-(2-(isopropylsulfonyl)phenyl)pyrimidine-2,4-diamine] | 0.1 µM | 0.14 µM | 
COc1ccc(CCN)cc1Nc1ncc(Cl)c(Nc2cc(F)ccc2S(=O)(=O)C(C)C)n1 [Example 33, N2-(5-(2-aminoethyl)-2-methoxyphenyl)-5-chloro-N4-(5-fluoro-2-(isopropylsulfonyl)phenyl)pyrimidine-2,4-diaminehydrochloride] |  | 10 µM | GI50 (H3122 cells; H3122 cells, three days, SRB): 10 µM
COc1ccc(C(C)(C)CN)cc1Nc1ncc(Cl)c(Nc2cc(F)ccc2S(=O)(=O)C(C)C)n1 [Example 37, N2-(5-(1-amino-2-methylpropane-2-yl)-2-methoxyphenyl)-5-chloro-N4-(5-fluoro-2-(isopropylsulfonyl)phenyl)pyrimidine-2,4-diamine] |  | 10 µM | GI50 (H3122 cells; H3122 cells, three days, SRB): 10 µM
COc1ccc(CNC(=O)C(F)(F)F)cc1Nc1ncc(Cl)c(Nc2ccccc2S(=O)(=O)C(C)C)n1 [Example 28, N-(3-((5-chloro-4-((2-(isopropylsulfonyl)phenyl)amino)pyrimidine-2-yl)amino)-4-methoxybenzyl)-2,2,2-trifluoroacetamide] | 0.82 µM | 0.98 µM | 
COc1ccc(CCNCc2ccccc2)cc1Nc1ncc(Cl)c(Nc2ccccc2S(=O)(=O)C(C)C)n1 [Example 11, N2-(5-(2-(benzylamino)ethyl)-2-methoxyphenyl)-5-chloro-N4-(2-(isopropylsulfonyl)phenyl)pyrimidine-2,4-diamine] | 1.4 µM | 1.4 µM | 
COc1ccc(CCNC(=O)C(F)(F)F)cc1Nc1ncc(Cl)c(Nc2ccccc2S(=O)(=O)C(C)C)n1 [Example 30, N-(3-(5-chloro-4-(2-(isopropylsulfonyl)phenylamino)pyrimidine-2-ylamino)-4-methoxyphenethyl)-2,2,2-trifluoroacetamide] | 0.48 µM | 0.76 µM | 
CNCCc1ccc(OC)c(Nc2ncc(Cl)c(Nc3ccccc3S(=O)(=O)C(C)C)n2)c1 [Example 10, 5-chloro-N4-(2-(isopropylsulfonyl)phenyl)-N2-(2-methoxy-5-(2-(methylamino)ethyl)phenyl)pyrimidine-2,4-diamine] | 1.2 µM | 1.8 µM | 
COc1ccc(CCN2CCCCC2)cc1Nc1ncc(Cl)c(Nc2ccccc2S(=O)(=O)C(C)C)n1 [Example 21, 5-chloro-N4-(2-(isopropylsulfonyl)phenyl)-N2-(2-methoxy-5-(2-(piperidine-1-yl)ethyl)phenyl)pyrimidine-2,4-diamine] |  |  | GI50 (H3122 cells): 0.06 µM; GI50 (H3122 cells; Homo sapiens, NCI-H3122, 72 h): ≤ 0.1 µM; GI50 (H2228 cells; read-out: Cytotoxicity H2228 (GI50 μM)): 0.08 µM
COc1ccc(CCNC(C)=O)cc1Nc1ncc(Cl)c(Nc2ccccc2S(=O)(=O)C(C)C)n1 [Example 7, N-(3-(5-chloro-4-(2-(isopropylsulfonyl)phenylamino)pyrimidine-2-ylamino)-4-methoxyphenethyl)acetamide] | 0.79 µM | 0.8 µM | 
COc1ccc(CCN(C)C)cc1Nc1ncc(Cl)c(Nc2ccccc2S(=O)(=O)C(C)C)n1 [Example 9, 5-chloro-N2-(5-(2-(dimethylamino)ethyl)-2-methoxyphenyl)-N4-(2-(isopropylsulfonyl)phenyl)pyrimidine-2,4-diamine] | 0.22 µM | 0.23 µM | 
COc1ccc(C2(CN3CCCCC3)CCCC2)cc1Nc1ncc(Cl)c(Nc2ccccc2S(=O)(=O)C(C)C)n1 [Example 5] |  | 7.8 µM | GI50 (H3122 cells; H3122 cells, three days, SRB): 10 µM
CC(C)Oc1ccc(CCN)cc1Nc1ncc(Cl)c(Nc2ccccc2S(=O)(=O)C(C)C)n1 [Example 31, N2-(5-(2-aminoethyl)-2-isopropoxyphenyl)-5-chloro-N4-(2-(isopropylsulfonyl)phenyl)pyrimidine-2,4-diamine] | 0.7 µM | 0.51 µM | 
